target: T1, human H1 (Homo sapiens, UniProt P35367); assay: In vitro histamine H1 receptor cell-based aequorin bioluminescence antagonist assay; conditions: CHO-K1 cells expressing human H1 and aequorin; histamine at EC80; read-out: H1 Antagonist EC50
T1 construct: host or cells: CHO-K1, also expressing mitochondrion-targeted aequorin
Description: In vitro Histamine Receptor Cell-Based Assays
The cell-based assays utilize an aequorin dependent bioluminescence signal. Doubly-transfected, stable CHO—K1 cell lines expressing human H1 or H4, mitochondrion-targeted aequorin, and (H4 only) human G protein Gα16 are obtained from Perkin-Elmer. Cells are maintained in F12 (Ham's) growth medium, containing 10% (vol./vol.) fetal bovine serum, penicillin (100 IU/mL), streptomycin (0.1 mg/mL), zeocin (0.25 mg/mL) and geneticin (0.40 mg/mL). Cell media components are from Invitrogen, Inc. One day prior to assay, the growth medium is replaced with the same, excluding zeocin and geneticin.
For assay preparation, growth medium is aspirated, and cells are rinsed with calcium-free, magnesium-free phosphate-buffered saline, followed by two to three minute incubation in Versene (Invitrogen, Inc.) at 37° C. Assay medium (DMEM:F12 [50:50], phenol-red free, containing 1 mg/mL protease-free bovine serum albumin) is added to collect the released cells, which are then centrifuged. The cell pellet is re-suspended in assay medium, centrifuged once more, and re-suspended in assay medium to a final density of 5×10^6 cells/mL. Coelenterazine-h dye (500 μM in ethanol) is added to a final concentration of 5 μM, and mixed immediately. The conical tube containing the cells is then wrapped with foil to protect the light-sensitive dye. The cells are incubated for four hours further at room temperature (approximately 21° C.) with end-over-end rotation to keep them in suspension.
Just before assay, the dye-loaded cells are diluted to 0.75×10^6 cells/mL (H1 receptor) or 1.5×10^6 cells/mL (H4 receptor) with additional assay medium. Cells are dispensed to 1536 well micro-titer plates at 3 μL/well. To assay receptor antagonism, 60 nl of 100× concentration test compounds in 100% dimethyl sulfoxide (DMSO) are dispensed to the wells, one compound per well, by passive pin transfer, and the plates are incubated for 15 minutes at room temperature. […] The pipette dispenses 3 μL/well of agonist (histamine, at twice the final concentration, where final concentration is a previously determined EC80) in assay medium, with concurrent bioluminescence detection. Agonist activity of test compounds is excluded by separate assays that measure response to test compounds immediately, without added histamine agonist.
CCD image capture on the Lumilux includes a 5 second baseline read prior to agonist addition, and generally a 40 second read per plate after agonist addition. A decrease in bioluminescence signal (measured either as area-under-the-curve, or maximum signal amplitude minus minimum signal amplitude) correlates with receptor antagonism in a dose dependent manner. The negative control is DMSO lacking any test compound. For antagonist assays, the positive controls are diphenhydramine (2-Diphenylmethoxy-N,N-dimethylethylamine, 10 μM final concentration, H1 receptor) or JNJ7777120 (1-[(5-Chloro-1H-indol-2-yl)carbonyl]-4-methyl-piperazine, 10 μM final concentration, H4 receptor). Efficacy is measured as a percentage of positive control activity.

T1 sequence (P35367 whole entry): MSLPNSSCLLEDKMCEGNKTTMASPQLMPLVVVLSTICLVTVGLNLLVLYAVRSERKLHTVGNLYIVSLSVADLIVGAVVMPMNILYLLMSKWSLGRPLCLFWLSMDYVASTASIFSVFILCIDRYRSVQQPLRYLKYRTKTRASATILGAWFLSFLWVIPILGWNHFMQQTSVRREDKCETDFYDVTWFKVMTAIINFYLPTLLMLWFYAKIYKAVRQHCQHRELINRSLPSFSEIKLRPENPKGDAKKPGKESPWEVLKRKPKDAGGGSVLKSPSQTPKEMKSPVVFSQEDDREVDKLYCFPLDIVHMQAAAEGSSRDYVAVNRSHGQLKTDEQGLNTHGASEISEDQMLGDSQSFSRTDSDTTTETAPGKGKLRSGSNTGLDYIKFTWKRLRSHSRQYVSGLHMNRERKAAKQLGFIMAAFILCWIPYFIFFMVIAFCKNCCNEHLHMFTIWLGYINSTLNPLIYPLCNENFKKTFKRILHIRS

Row | Compound | EC50 [µM]
1 | COCC(C)Nc1ncnc2scc(C)c12 (stereo not shown) [Example 71, N-(1-methoxypropan-2-yl)-5-methylthieno[2,3-d]pyrimidin-4-amine] | > 10
2 | Clc1ccccc1CCNc1ncnc2sc3c(c12)CCCC3 [Example 297] | > 10
3 | Cc1csc2ncnc(NCc3ccc(F)cc3)c12 [Example 103, N-[(4-fluorophenyl)methyl]-5-methylthieno[2,3-d]pyrimidin-4-amine] | > 10
4 | Cc1csc2ncnc(NCCC(C)(C)C)c12 [Example 78, N-(3,3-dimethylbutyl)-5-methylthieno[2,3-d]pyrimidin-4-amine] | > 10
5 | Cc1csc2ncnc(NCCc3ccc(S(N)(=O)=O)cc3)c12 [Example 173, 4-[2-({5-methylthieno[2,3-d]pyrimidin-4-yl}amino)ethyl]benzene-1-sulfonamide] | > 10
6 | Cc1sc2ncnc(NCCc3ccc(S(N)(=O)=O)cc3)c2c1C [Example 301, 4-(2-(5,6-dimethylthieno[2,3-d]pyrimidin-4-ylamino)ethyl)benzenesulfonamide] | > 10
7 | COc1cccc(CCNc2ncnc3scc(C)c23)c1 [Example 16, [2-(3-Methoxyphenyl)ethyl](5-methylthiopheno[3,2-e]pyrimidin-4-yl)amine] | > 10
8 | Cc1csc2ncnc(NCCC(C)C)c12 [Example 69, 5-methyl-N-(3-methylbutyl)thieno[2,3-d]pyrimidin-4-amine] | > 10
9 | Cc1ccc(CCNc2ncnc3scc(C)c23)cc1 [Example 19] | > 10
10 | Cc1csc2ncnc(NCc3ccc(F)cc3F)c12 [Example 133, N-[(2,4-difluorophenyl)methyl]-5-methylthieno[2,3-d]pyrimidin-4-amine] | > 10
11 | Cc1csc2ncnc(NCC3CC3)c12 [Example 59, N-(cyclopropylmethyl)-5-methylthieno[2,3-d]pyrimidin-4-amine] | > 10
12 | CC(=O)c1c(C)[nH]c(C(=O)CSc2ncnc3sc(C)c(C)c23)c1C [Example 304, 1-(4-acetyl-3,5-dimethyl-1H-pyrrol-2-yl)-2-(5,6-dimethylthieno[2,3-d]pyrimidin-4-ylthio)ethanone] | > 10
13 | Cc1cccc(CCNc2ncnc3scc(C)c23)c1 [Example 20] | > 10
14 | Cc1csc2ncnc(N3CCc4ccccc4C3)c12 [Example 216, 2-{5-methylthieno[2,3-d]pyrimidin-4-yl}-1,2,3,4-tetrahydroisoquinoline] | > 10
15 | COc1cccc(CNc2ncnc3scc(C)c23)c1 [Example 125, N-[(3-methoxyphenyl)methyl]-5-methylthieno[2,3-d]pyrimidin-4-amine] | > 10
16 | CCCCN(Cc1ccccc1)c1ncnc2scc(C)c12 [Example 235, N-benzyl-N-butyl-5-methylthieno[2,3-d]pyrimidin-4-amine] | > 10
17 | Cc1csc2ncnc(N3CCCCC3C)c12 (stereo not shown) [Example 190, 2-methyl-1-{5-methylthieno[2,3-d]pyrimidin-4-yl}piperidine] | > 10
18 | Cc1csc2ncnc(NCc3ccccc3Cl)c12 [Example 130, N-[(2-chlorophenyl)methyl]-5-methylthieno[2,3-d]pyrimidin-4-amine] | > 10
19 | COCC(C)n1c(C)cc(C(=O)CSc2ncnc3sc(C)c(C)c23)c1C (stereo not shown) [Example 303, 2-(5,6-dimethylthieno[2,3-d]pyrimidin-4-ylthio)-1-(1-(1-methoxypropan-2-yl)-2,5-dimethyl-1H-pyrrol-3-yl)ethanone] | > 10
20 | Cc1sc2ncnc(N3CCC(C(=O)OCc4ccc(C#N)cc4)CC3)c2c1C [Example 306, 4-cyanobenzyl 1-(5,6-dimethylthieno[2,3-d]pyrimidin-4-yl)piperidine-4-carboxylate] | > 10
21 | COc1cc(CNc2ncnc3scc(C)c23)cc(OC)c1 [Example 159, N-[(3,5-dimethoxyphenyl)methyl]-5-methylthieno[2,3-d]pyrimidin-4-amine] | > 10
22 | Cc1csc2ncnc(N3CCCCC3CO)c12 (stereo not shown) [Example 206, (1-{5-methylthieno[2,3-d]pyrimidin-4-yl}piperidin-2-yl)methanol] | > 10

From patent US20100063047A1 (KALYPSYS, INC., priority 2008, published 2010)
